What was measured:
5xFAD mouse = assay: In vivo efficacy trial in the 5xFAD transgenic AD mouse model; conditions: wildtype littermate mice
Source text: The 5xFAD mouse (B6SJL-Tg(SwFLon,PSEN1*M 146L*L286V)6799Vas/J; JAX #006554) overexpresses human APP(695) with the Swedish (K670N,M671L), Florida (I716V) and London (V717I) familial AD (FAD) mutations, as well as human presenilin 1 (PSI) with two FAD mutations (M 146L and L286V). These five mutations act additively, leading to large and rapid age-related increases in neuronal Aβ-40 and Aβ-42 peptides beginning at 2 months of age. […] Extra-cellular Aβ plaques are first observed in the hippocampus, subiculum, frontal cortex and spinal cord at 2-3 months of age and increase with age. No neurofibrillary tangles (tau) are observed in the brains of 5xFAD mice. […] Active astrocytes are commonly found surrounding β-amyloid plaques and levels of the pre-synaptic marker synaptophysin are decreased, indicating a decrease in synaptic connectivity to the 5xFAD mouse (Oakley et al., 2006). […] Age-related cognitive impairment in visuo-spatial working memory in the Y-maze occurs at 4-5 months of age. […]
The general procedure for an in vivo efficacy trial with 5xFAD mice is as follows. […] After behavioral testing, mice are sacrificed and their blood and brains assessed for Aβ levels.

Aβ40 = molecular target: T1, Aβ40 (Homo sapiens, UniProt P05067); assay: Thioflavin T (ThT) Aβ aggregation assay; format: biochemical; conditions: 20 μM Aβ40, 37 degrees C
T1 construct: pre-treated Aβ40 (40 μM in 20 mM Tris, pH 7.4)
In short: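 Aβ40 was HFIP-pretreated to remove preformed aggregates; 20 µM Aβ40 incubated with compound and 4 µM ThT in 20 mM Tris pH 7.4, 150 mM NaCl, 1% DMSO at 37 °C. Fluorescence (ex 450/em 480 nm) read every 15 min after shaking; inhibition judged by attenuated fluorescence rise versus DMSO controls.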

T1 sequence (P05067 672-711 limits assumed): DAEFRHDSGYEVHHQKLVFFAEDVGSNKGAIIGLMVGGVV

behavioural performance, WT with compound versus WT with vehicle (5xFAD mouse): no difference in behavioural performance | IC50 (Aβ40): 3.09 ± 0.21 µM
SMILES: O=[N+]([O-])c1ccc(-c2cccc(C(O)C(F)(F)F)c2)cc1NCc1ccccc1 (centres unmarked) [TRV 1140, 1-(3′-(benzylamino)-4′-nitro-[1,1′-biphenyl]-3-yl)-2,2,2-trifluoroethanol]

Reference: patent US20140187556A1, “ANTI-AMYLOID COMPOUNDS AND METHODS” (Treventis Corporation, priority 2011, published 2014)
